Measurements: patent US7063842B2, “Compounds and methods for inhibiting the interaction between α-catenin and β-catenin” (McGill University, priority 1997, dated 2006)
Positions of bridges follow the written chain, without caps; N, C: chain ends.

How the values were obtained:
[1] = system: α-catenin/β-catenin interactions; experiment: Immunoprecipitation from adult mouse brain extracts, Western blot probed with anti-α-catenin / anti-β-catenin antibodies; type: binding; conditions: adult mouse brain homogenate incubated 3 hours at 4° C. with peptide at 1 mg/ml
Method: As noted above, modulating agents are capable of disrupting an interaction between α-catenin and β-catenin. This ability may generally be evaluated using any suitable assay known to those of ordinary skill in the art. For example, an immunoprecipitation as described herein may be employed. Within such an assay, disruption of the interaction is measured by assessing the ability of an antibody directed against β-catenin to immunoprecipitate α-catenin in the presence and absence of the modulating agent. For example, tissue such as brain may be homogenized in the presence and absence of modulating agent. The ability of an antibody directed against β-catenin to immunoprecipitate α-catenin from the homogenate is then assessed by probing a Western blot of proteins immunoprecipitated from the tissue homogenate by anti-β-catenin antibody with an anti-α-catenin antibody. […]
These peptides, as well as two control peptides (H-CKHGWNC-OH, SEQ ID NO:6, and H-CKHGWNC-OH, SEQ ID NO:51) were analyzed for their ability to disrupt α-catenin/β-catenin interactions, as judged by standard immunoprecipitation methods. […] Finally, the membrane was washed 3 times with TTBS, and the immunoreactive proteins were detected using an enhanced chemiluminescence kit (ECL; Amersham Life Sciences Inc., Oakville, Ontario) and autoradiographic film (Fuji, Minami-Ashigara, Japan). […]

[2] = system: Normal human breast A1N4 cells; experiment: Disruption of cell adhesion: microinjection of peptide/DAPI mixture into cells, morphology noted at hourly intervals; type: cell-based; conditions: 0.2 pL peptide/DAPI mixture injected, final intracellular concentration of peptide 0.5 mg/ml, after 4 hours
Method: Three peptides (N-Ac-CKHAVVNC-NH2, N-Ac-CKHGWNC-NH2, and H-KHAVVN-OH; SEQ ID NOS: 5, 51 and 8 respectively) were tested for their ability to disrupt cell adhesion. Normal human breast A1N4 cells were grown on gridded glass coverslips to approximately 30% confluence. Peptides were dissolved in distilled water at a concentration of […]. Each of the three peptide solutions was mixed 1:1 with a solution containing the fluorescent marker DAPI (Molecular Probes Inc., Eugene, Oreg.) dissolved in water at a concentration of 40 μg/ml. All of the mixtures were centrifuged at 10,000×g for 5 minutes immediately before use in the experiments. An aliquot ([…]) of each peptide/DAPI mixture was taken up in an Eppendorff microinjection pipette. Microinjection was performed using an Eppendorf microinjector and micromanipulator coupled to an IM35 inverted Zeiss microscope with phase contrast and Hoffman optics. Cells to be injected were located and their position on the grid noted. For microinjection, the pipette was brought close to the cell layer and the micromanipulator programmed to return to the same plane. Cells were injected with 0.2 pL of peptide/DAPI mixture. This corresponds to approximately 1/100 of the cell volume and results in a final intracellular concentration of peptide of 0.5 mg/ml. […] After 4 hours, a difference in the morphology of the cells injected with the various peptides was observed.

| Substance | ability to disrupt α-catenin/β-catenin interactions, as judged by immunoprecipitation [1] | morphology of the injected cells [2] |
| --- | --- | --- |
| H-Cys-Lys-His-Ala-Val-Val-Asn-Cys-OH (H-CKHAVVNC-OH; cysteine pairing not given here) [H-CKHAVVNC-OH (SEQ ID NO:5)] | capable of disrupting the interaction between α-catenin and β-catenin |  |
| N-Ac-CKHAVVNC-NH2 (disulfide 1-8 (inferred)) [N-Ac-CKHAVVNC-NH2 (SEQ ID NO:5)] |  | indistinguishable from surrounding uninjected cells |
| H-CKHAVVNC-OH (cysteine pairing not given here) [H-CKHAVVNC-OH (SEQ ID NO:4)] | capable of disrupting the interaction between α-catenin and β-catenin |  |
| H-KHAVVN-OH [H-KHAVVN-OH (SEQ ID NO:8)] |  | had become rounded, and they were detached from their neighbors |
| Ac-CKHGWNC-NH2 (cysteine pairing not given here) [N-Ac-CKHGWNC-NH2 (SEQ ID NO:51), reference compound] |  | indistinguishable from surrounding uninjected cells |
